Laboratory results: patent publication US20040063685A1, “Combination Drugs” (priority 2000, published 2004)

Key:
[1] = crystals
E. coli O111 strain = experiment: Survival of mice intraperitoneally inoculated with E. coli O111, combined use with ceftazidime; assay type: in vivo; conditions: FIG. 1
Method: The E. coli O111 strain was suspended in 5% mucin, and 0.5 ml thereof was intraperitoneally inoculated to mice (BALB/c, male, 5-week-old) (9×10^4 CFU per mouse). At 1 hr after inoculation, an antibacterial agent, ceftazidime (CAZ, 12.5 μg/kg) was administered subcutaneously, and compound 29 (test compound 30 mg/kg) of Reference Example B65 suspended in a 0.5% methyl cellulose (MC) solution was simultaneously administered orally.

SMILES	hygroscopicity [1]	survival rate (E. coli O111 strain; combined use: compound 29 30 mg/kg orally (0.5% methyl cellulose) and ceftazidime (CAZ) 12.5 μg/kg subcutaneously at 1 hr after inoculation, BALB/c male mice, 9×10^4 CFU per mouse, monitored for a week)	effectiveness of test compound alone (survival) (E. coli O111 strain; compound 29 30 mg/kg orally without ceftazidime, BALB/c mice infected with E. coli O111)
CCOC(=O)C1=CCCCC1S(=O)(=O)Nc1ccc(F)cc1Cl (stereo not drawn) [crystals of compound B, d-ethyl 6-[N-(2-chloro-4-fluorophenyl)sulfamoyl]-1-cyclohexene-1-carboxylate]	low		
CCOC(=O)C1=CCCCC1S(=O)(=O)Nc1ccc(F)cc1Cl (stereo not drawn) [compound 29, ethyl 6-[N-(2-chloro-4-fluorophenyl)sulfamoyl]-1-cyclohexene-1-carboxylate]		remarkably increases	low effectiveness
